Laboratory results: PMC11173194, “Optimizing Antimicrobial Peptide Design: Integration of Cell-Penetrating Peptides, Amyloidogenic Fragments, and Amino Acid Residue Modifications” (International Journal of Molecular Sciences, 2024)

What was measured:
MRSA ATCC 43300 strain = test: Antibacterial activity in liquid medium; format: cell-based, methicillin-resistant Staphylococcus aureus; details: for Peptide Efficacy in Liquid Medium after 15 h of Incubation: MRSA ATCC 43300 strain, Mueller–Hinton Broth, two independent experiments
Method: (§1) We utilized various strains of microorganisms in this study. […] Bacillus cereus strain IP 5832 (susceptible), Pseudomonas aeruginosa strains ATCC 28753 (susceptible) and 2943 (resistant), and Escherichia coli strains K12 and MG1655 (both susceptible) were also utilized in our experiments.
(§2) S. aureus (strains 209P and 129B), MRSA (strains ATCC 43300 and SA 180-F), B. cereus (strain IP 5832), P. aeruginosa (strains ATCC 28753 and 2943), and E. coli (strains K12 and MG1655) were cultured on Mueller–Hinton Broth (MHB).
(§3) Statistical analysis was conducted using the SigmaPlot v15 software package (SPSS Inc., Chicago, IL, USA). Each experiment was repeated at least twice (n ≥ 2). Data are presented as mean ± standard deviation (M ± SD). Statistical significance was assessed using Student’s t-test and analysis of variance (ANOVA) in the tests of the antibacterial activity of the peptides. The confidence interval value of 0.95 was used, corresponding to an alpha value of 0.05. Statistically significant decreases in optical density compared to the negative control were considered for specific peptide concentrations with p-values below 0.05.

MRSA SA 180-F strain = test: Antibacterial activity in liquid medium; format: cell-based, methicillin-resistant Staphylococcus aureus; details: MRSA SA 180-F strain (clinical isolate), Mueller–Hinton Broth, two independent experiments
Method: as §1, §2, §3

E. coli MG1655 strain = test: Antibacterial activity in liquid medium; format: cell-based, Escherichia coli; details: for Peptide Efficacy in Liquid Medium after 24 h of Incubation: E. coli MG1655 strain, Mueller–Hinton Broth, two independent experiments; for concentration with antimicrobial activity / effective concentration (text to Figure 4): E. coli MG1655, liquid medium, 24 h
Method: as §1, §2, §3

E. coli K12 strain = test: Antibacterial activity in liquid medium; format: cell-based, Escherichia coli; details: for Peptide Efficacy in Liquid Medium after 15 h of Incubation: E. coli K12 strain, Mueller–Hinton Broth, two independent experiments; for concentration with antimicrobial activity / effective concentration (text to Figure 4): E. coli K12, liquid medium, 15 h
Method: as §1, §2, §3

[1] = tested on: P. aeruginosa 2943 strain; test: Antibacterial activity in liquid medium; format: cell-based, Pseudomonas aeruginosa; details: for Peptide Efficacy in Liquid Medium after 24 h of Incubation: P. aeruginosa 2943 strain (resistant), Mueller–Hinton Broth, two independent experiments; for antimicrobial effect compared to the negative control (Figure 3): P. aeruginosa 2943, liquid medium, 24 h
Method: as §1, §2, §3

P. aeruginosa ATCC 28753 = test: Antibacterial activity in liquid medium; format: cell-based, Pseudomonas aeruginosa; details: for Peptide Efficacy in Liquid Medium after 15 h of Incubation: Mueller–Hinton Broth, two independent experiments; for concentrations of peptides suppressing the growth of bacteria compared to the negative control (Figure 3): liquid medium, 15 h
Method: as §1, §2, §3

S. aureus 129B strain = test: Antibacterial activity in liquid medium; format: cell-based, Staphylococcus aureus; details: for Peptide Efficacy in Liquid Medium after 24 h of Incubation: S. aureus 129B strain (clinical isolate), Mueller–Hinton Broth, two independent experiments
Method: as §1, §2, §3

S. aureus 209P strain = test: Antibacterial activity in liquid medium; format: cell-based, Staphylococcus aureus; details: for Peptide Efficacy in Liquid Medium after 15 h of Incubation: S. aureus 209P strain, Mueller–Hinton Broth, two independent experiments; for concentration at which inhibition of bacterial growth was observed (Figure 1): S. aureus 209P, liquid medium, 15 h, gentamicin positive control
Method: as §1, §2, §3

B. cereus IP 5832 strain = test: Antibacterial activity in liquid medium; format: cell-based, Bacillus cereus; details: Mueller–Hinton Broth, two independent experiments
Method: as §1, §2, §3

human skin fibroblasts = test: Toxicity of peptides against human fibroblasts (calcein AM / propidium iodide; cell cycle); format: cell-based; details: 96 h, both with and without pre-incubation; for number of dead cells: calcein AM / propidium iodide
Method: The peptides were pre-incubated for 12 h in DMEM medium without serum in a CO2 incubator. After the incubation period, serum was added to the medium to a final concentration of 10%, and the preparation was added dropwise onto the cells. The cytotoxic effects of peptides against eukaryotic cells (human fibroblasts and BT474) were subsequently assessed using the same method as in the previous study [62].

[2] = tested on: S. aureus (strain 209P), MRSA (strain ATCC 43300), B. cereus (strain IP 5832), P. aeruginosa (strain ATCC 28753), and E. coli (strain K12); test: Antimicrobial effect compared with gentamicin, panel of Figure 5; format: cell-based; details: Figure 5 panel; Mueller–Hinton Broth; 15 h; two independent experiments
Method: The antibiotic gentamicin sulfate was used as a positive control. The concentration of gentamicin was 100 µM. Cell cultures in a liquid medium (Mueller–Hinton Broth) served as a negative control. Error bars show standard errors. Number of independent experiments is two. #—for significant differences with negative control p < 0.05.
as §2, §3

[3] = POPE:POPG bilayer; 0.1 M KCl, pH 7.4; subthreshold peptide concentrations (20 µg/mL)
Description: The effects of peptide R44K^S on the ionic permeability of planar lipid bilayers composed of an equimolar mixture of POPE and POPG mimicking target bacterial cell membranes was examined. The example of the time dependence of the transmembrane current produced by a subsequent one-side addition of R44K^S into the bathing solution (0.1 M KCl, pH 7.4) is shown in Figure 7A.
The method of recording the transmembrane current under voltage-clamp conditions was used to study the effect of a synthetic peptide on a lipid membrane. Planar lipid bilayers were formed by the Montal and Mueller technique on an aperture of 50 µm diameter in a 10 µm thick Teflon film separating two compartments of Teflon chambers. Each compartment contained 0.1 M KCl and 10 mM HEPES at pH 7.4. Hexadecane was used for the aperture pretreatment. […]
Ag/AgCl electrodes with 1.5% agarose/2 M KCl bridges were used to apply the transmembrane voltage (V) and measure the current flowing through the bilayer (I). […] Data were digitized by a Digidata 1550A and analyzed using pClamp 10.7 (Molecular Devices, LLC, Orleans Drive, Sunnyvale, CA, USA) and Origin 7.0 (OriginLab Corporation, Northampton, MA, USA). […]

BT474 cells = details: 100 µg/mL, both with and without pre-incubation, 96 h
Method: To analyze the cytotoxic effect, cells after incubation with peptides were stained with calcein AM (stains living cells) and propidium iodide (stains dead cells).
Analysis of the cytostatic effect was performed on the basis of the distribution of cells by phases of the cell cycle and mitotic activity.
The peptides were pre-incubated for 12 h in DMEM medium without serum in a CO2 incubator. After the incubation period, serum was added to the medium to a final concentration of 10%, and the preparation was added dropwise onto the cells. The cytotoxic effects of peptides against eukaryotic cells (human fibroblasts and BT474) were subsequently assessed using the same method as in the previous study.

Row | Substance | Peptide Efficacy in Liquid Medium after 15 h of Incubation (MRSA ATCC 43300 strain) | Peptide Efficacy in Liquid Medium after 24 h of Incubation (MRSA SA 180-F strain) | Peptide Efficacy in Liquid Medium after 24 h of Incubation (E. coli MG1655 strain) | Peptide Efficacy in Liquid Medium after 15 h of Incubation (E. coli K12 strain) | Peptide Efficacy in Liquid Medium after 24 h of Incubation [1] | Peptide Efficacy in Liquid Medium after 15 h of Incubation (P. aeruginosa ATCC 28753) | Peptide Efficacy in Liquid Medium after 24 h of Incubation (S. aureus 129B strain) | Peptide Efficacy in Liquid Medium after 15 h of Incubation (S. aureus 209P strain) | concentration with antimicrobial activity / effective concentration (text to Figure 4) (E. coli MG1655 strain) [µM] | concentration with antimicrobial activity / effective concentration (text to Figure 4) (E. coli K12 strain) | antimicrobial effect compared to the negative control (Figure 3) [1] | concentrations of peptides suppressing the growth of bacteria compared to the negative control (Figure 3) (P. aeruginosa ATCC 28753) [µM] | concentration at which inhibition of bacterial growth was observed (Figure 1) (S. aureus 209P strain) | cytotoxic effect (human skin fibroblasts; 100 µg/mL) | also measured
1 | RKKRRQRRRGG-Sar-GVVVHI-X-GGKF-NH2 [R23F^S*, Peptide with TAT fragment and modified amyloidogenic fragment of S. aureus S1 protein, C-terminal amide] | 12 µM | 379.8 µM | 379.8 µM | 3 µM | 38 µM | 6 µM | 379.8 µM | 6 µM | – | – | – | – | – | – | Peptide Efficacy in Liquid Medium after 15 h of Incubation (B. cereus IP 5832 strain): 3 µM; number of dead cells (human skin fibroblasts; 50 µg/mL): 11 ± 3%; number of dead cells (human skin fibroblasts; 100 µg/mL): 12 ± 3%; concentrations with antimicrobial effect comparable to gentamicin (100 μM) against all bacteria [2]: 24 to 48 µM
2 | RKKRRQRRRGGGGVVVHINGGKFGGGGSRQIKIWFQNRRMKWKK [R44K^S, Unmodified peptide: TAT fragment, amyloidogenic fragment and Antp fragment; commercial product] | 12 µM | >194.4 µM, SA 180-F strain | 194.4 µM | 6 µM | >194.4 µM, 2943 strain | 3 µM | >194.4 µM, 129B strain | 6 µM | 19.4 | 6 µM | did not exhibit antimicrobial effects | 1.5 | 6 to 12 µM | no cytotoxic effect | concentration at which inhibitory effect / complete suppression of growth was observed (text to Figure 2) (MRSA ATCC 43300 strain; MRSA ATCC 43300, liquid medium, 15 h): 12 µM; single pore conductance [3]: 10–30 pS
3 | VVVHINGGKFGGGGSRQIKIWFQNRRMKWKK [V31K^S, commercial product] | >12 µM, ATCC 43300 strain | >276.8 µM, SA 180-F strain | >276.8 µM, MG1655 strain | >12 µM, K12 strain | >276.8 µM, 2943 strain | >12 µM, ATCC 28753 | >276.8 µM, 129B strain | >12 µM, 209P strain | 276.8 | did not exhibit antimicrobial activity | did not exhibit antimicrobial effects | 6 | not demonstrated | no cytotoxic effect | cytotoxic effect (BT474 cells): no cytotoxic effect; complete inhibition of bacterial growth (Figure 1) (S. aureus 129B strain; S. aureus 129B, liquid medium, 24 h): not demonstrated
